PubChem BioAssay AID1963835 (Molecular Pharmacology Branch, DTP, NCI, 2024)

Tested on: 699152-130-R-J1-PDC complex spheroid viability
Test: Anticancer human tumor 699152-130-R-J1-PDC patient-derived pancreatic carcinoma cell line growth inhibition [POLQ]
Details: for IC50: curve of first compound; for viability, T/C: stronger effect = lower value
Outline: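 Complex spheroid viability model combining PDC tumour cells with endothelial (HUVEC) and MSC stromal cells. Novobiocin, ART-558 or RP6685 were tested singly and in combination with standard and investigational anticancer drugs. Each was titrated in half-log steps from near clinical Cmax, or from 10 microM where Cmax was unknown.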

[1] = second compound 0.0316 µM, first compound 0.0316 µM
[2] = second compound 0.0316 µM, first compound 0.1 µM
[3] = second compound 0.0316 µM, first compound 0.316 µM
[4] = second compound 0.0316 µM, first compound 1 µM
[5] = second compound 0.0316 µM, first compound 3.16 µM
[6] = second compound 0.0316 µM, first compound 10 µM
[7] = second compound 0.1 µM, first compound 0.0316 µM
[8] = second compound 0.1 µM, first compound 0.1 µM
[9] = second compound 0.1 µM, first compound 0.316 µM
[10] = second compound 0.1 µM, first compound 1 µM
[11] = second compound 0.1 µM, first compound 3.16 µM
[12] = second compound 0.1 µM, first compound 10 µM
[13] = second compound 0.316 µM, first compound 0.0316 µM
[14] = second compound 0.316 µM, first compound 0.1 µM
[15] = second compound 0.316 µM, first compound 0.316 µM
[16] = second compound 0.316 µM, first compound 1 µM
[17] = second compound 0.316 µM, first compound 3.16 µM
[18] = second compound 0.316 µM, first compound 10 µM
[19] = second compound 1 µM, first compound 0.0316 µM
[20] = second compound 1 µM, first compound 0.1 µM
[21] = second compound 1 µM, first compound 0.316 µM
[22] = second compound 1 µM, first compound 1 µM
[23] = second compound 1 µM, first compound 3.16 µM
[24] = second compound 1 µM, first compound 10 µM
[25] = second compound 3.16 µM, first compound 0.0316 µM
[26] = second compound 3.16 µM, first compound 0.1 µM
[27] = second compound 3.16 µM, first compound 0.316 µM
[28] = second compound 3.16 µM, first compound 1 µM
[29] = second compound 3.16 µM, first compound 3.16 µM
[30] = second compound 3.16 µM, first compound 10 µM
[31] = second compound 10 µM, first compound 0.0316 µM
[32] = second compound 10 µM, first compound 0.1 µM
[33] = second compound 10 µM, first compound 0.316 µM
[34] = second compound 10 µM, first compound 1 µM
[35] = second compound 10 µM, first compound 3.16 µM
[36] = second compound 10 µM, first compound 10 µM
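Note: spheroids exposed to agents for 7 days before viability reading.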
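Throughout, for viability, T/C: percent of DMSO vehicle control viability so 100% = vehicle and 0% = no viable signal.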

SMILES: CC(C)n1c(=O)n(C)c2cnc3cc(F)c(-c4ccc(OCCCN5CCCCC5)nc4)cc3c21 + Cc1cccc(N(C)C(=O)C2C(O)CCN2c2nc(C)cc(C(F)(F)F)c2C#N)c1
- IC50 (second compound 0.0316 µM): > 10 µM
- IC50 (second compound 0.1 µM): > 10 µM
- IC50 (second compound 0.316 µM): > 10 µM
- IC50 (second compound 1 µM): > 10 µM
- IC50 (second compound 3.16 µM): > 10 µM
- IC50 (second compound 10 µM): > 10 µM
- viability, T/C [1]: 94.9%
- viability, T/C [2]: 98.5%
- viability, T/C [3]: 100%
- viability, T/C [4]: 110%
- viability, T/C [5]: 107%
- viability, T/C [6]: 83.2%
- viability, T/C [7]: 97.3%
- viability, T/C [8]: 101%
- viability, T/C [9]: 112%
- viability, T/C [10]: 109%
- viability, T/C [11]: 104%
- viability, T/C [12]: 98.3%
- viability, T/C [13]: 111%
- viability, T/C [14]: 94.2%
- viability, T/C [15]: 104%
- viability, T/C [16]: 118%
- viability, T/C [17]: 114%
- viability, T/C [18]: 94.8%
- viability, T/C [19]: 113%
- viability, T/C [20]: 116%
- viability, T/C [21]: 98.7%
- viability, T/C [22]: 121%
- viability, T/C [23]: 113%
- viability, T/C [24]: 87.3%
- viability, T/C [25]: 104%
- viability, T/C [26]: 116%
- viability, T/C [27]: 103%
- viability, T/C [28]: 104%
- viability, T/C [29]: 112%
- viability, T/C [30]: 78.7%
- viability, T/C [31]: 98.1%
- viability, T/C [32]: 84.4%
- viability, T/C [33]: 123%
- viability, T/C [34]: 111%
- viability, T/C [35]: 106%
- viability, T/C [36]: 84.7%

SMILES: COc1ccc([C@@H](O)c2cc(-c3ncnc4cc(N5CCOCC5)ccc34)c(F)cc2Cl)nn1 + COC1C(OC(N)=O)C(O)C(Oc2ccc3c(O)c(NC(=O)c4ccc(O)c(CC=C(C)C)c4)c(=O)oc3c2C)OC1(C)C
- IC50 (second compound 0.0316 µM): 3.83 µM
- IC50 (second compound 0.1 µM): 4.13 µM
- IC50 (second compound 0.316 µM): 3.83 µM
- IC50 (second compound 1 µM): 3.58 µM
- IC50 (second compound 3.16 µM): 4.02 µM
- IC50 (second compound 10 µM): 4.25 µM
- viability, T/C [1]: 94.5%
- viability, T/C [2]: 96.9%
- viability, T/C [3]: 85.6%
- viability, T/C [4]: 82.8%
- viability, T/C [5]: 53.9%
- viability, T/C [6]: 26.3%
- viability, T/C [7]: 112%
- viability, T/C [8]: 87%
- viability, T/C [9]: 87%
- viability, T/C [10]: 83%
- viability, T/C [11]: 56.1%
- viability, T/C [12]: 27.4%
- viability, T/C [13]: 113%
- viability, T/C [14]: 107%
- viability, T/C [15]: 92.2%
- viability, T/C [16]: 80.4%
- viability, T/C [17]: 54.7%
- viability, T/C [18]: 24%
- viability, T/C [19]: 118%
- viability, T/C [20]: 98.1%
- viability, T/C [21]: 96.9%
- viability, T/C [22]: 70.1%
- viability, T/C [23]: 58.5%
- viability, T/C [24]: 22.6%
- viability, T/C [25]: 98.3%
- viability, T/C [26]: 108%
- viability, T/C [27]: 86.6%
- viability, T/C [28]: 88.7%
- viability, T/C [29]: 56.2%
- viability, T/C [30]: 21.6%
- viability, T/C [31]: 101%
- viability, T/C [32]: 90.8%
- viability, T/C [33]: 90.9%
- viability, T/C [34]: 71.6%
- viability, T/C [35]: 60.6%
- viability, T/C [36]: 27.7%
